Results taken from patent US20090275099A1 (priority 2004, published 2009).
“Also recorded” adds a separate entry of the source. Read-outs that look alike come from different tables or passages of the source.

Legend:
human OSCP = molecular target: T1, human OSCP (Homo sapiens, UniProt P48047); test: OSCP binding by quenching of intrinsic protein fluorescence
T1 construct: made in house; host or cells: E. coli
Excerpt: To determine if Bz-423 indeed binds to the OSCP and the affinity of the interaction, human OSCP was overexpressed in E. coli. […] Bz-423 is the only known inhibitor of the ATPase that functions through binding to the OSCP.

Ramos cells [1] = test: cell culture cytotoxicity assays; type: cell-based, human
Experimental: Like most 1,4-benzodiazepines, Bz-423 binds strongly to bovine serum albumin (BSA), which reduces the effective concentration of drug free in solution. For example, in tissue culture media containing 10% (v/v) fetal bovine serum (FBS), ca. 99% of the drug is bound to BSA. Therefore, cell culture cytotoxicity assays are conducted in media with 2% FBS to reduce binding to BSA and increase the free [Bz-423]. Under these conditions, the dose response-curve is quite sharp such that there is a limited concentration range at which Bz-423 is only partly effective. Since some benzodiazepines are known to have anti-proliferative properties, the effect of Bz-423 at concentrations <ED50 were carefully analyzed and observed that in addition to inducing apoptosis, Bz-423 prevented cell growth after 3 d in culture. In these low serum conditions, the cytotoxic and anti-proliferative effects overlapped making it difficult to study each effect independently. […] While higher amounts of drug may also block proliferation, it caused apoptosis well before the effects on proliferation could be observed.
To confirm the decrease in cell number relative to control cells after 3 d of treatment is due to decreased proliferation and not cell death balanced by proliferation, in addition to cell counting, cell divisions were studied. PKH-67 is a fluorescent probe that binds irreversibly to cell membranes and upon cell division is partitioned equally between the daughter cells, making it possible to quantify cell division by flow cytometry. Ramos cells stained with PKH67 and treated with Bz-423 had fewer cell divisions at sub-cytotoxic concentrations which confirmed that the decrease in cell number was due to anti-proliferative affects and not cell death. To determine if Bz-423 induced anti-proliferation was specific to Ramos cells, cell counting and cell cycle experiments were done in other B cell lines and cell lines derived from solid tumors.

[2] = tested on: ornithine decarboxylase (ODC); test: ODC activity in treated cells (conversion of 3H-ornithine to putrescine); type: cell-based, human; conditions: cells treated for 4 h
Experimental: In these experiments, the conversion of ornithine to putrescine was quantified using ^3H-ornithine. For comparisons, control cells were treated with vehicle control or difluoromethyl ornithine (DFMO), a potent inhibitor of ornithine decarboxylase (like Bz-423, DFMO is a potent anti-proliferative agent). […] The reduction in ODC activity was paralleled by a decrease in ODC protein levels measured under the same conditions.
As described above, Bz-423 induced apoptosis was signaled by an ROS response that arose from MRC complex III as a result of the state 3 to 4 transition. It was next sought to determine if the ROS response, critical for apoptosis, also mediated these effects on ODC. If the ROS was required for the decrease in ODC activity, it would likewise be implicated as potentially part of the anti-proliferative response to Bz-423. To test this, Ramos cells were treated with Bz-423, DFMO, or vehicle control for 4 h. In parallel, a second group of cells was pre-incubated with MnTBAP to limit the ROS and then cultured with Bz-423, DFMO, and vehicle control.

[3] = tested on: panel of cells in Table 7; test: antiproliferation of Bz-Cl against the panel of cells, 3 d; type: cell-based; conditions: after 3 d
[4] = molecular target: T2, mitochondrial F1F0-ATPase (Bos taurus, UniProt P13621+P32876); test: biochemical; parameters: species or system bovine; conditions: for Ki: oligomycin
[5] = molecular target: T2, mitochondrial F1F0-ATPase; test: biochemical; parameters: species or system bovine; conditions: for Ki: oligomycin; remark: listed apart in the source
Ramos B cells = test: cell death of Ramos B cells, propidium iodide exclusion by flow cytometry, 24 h; type: cell-based, human; conditions: Homo sapiens
Ramos cells [6] = test: early O2− (ROS) response, 1 h; type: cell-based, human; conditions: Homo sapiens, Ramos, 1 h; read-out: ROS EC50 (μM), Ramos cells
Experimental: (§1) To detect O2^−, cells are incubated with DHE (10 μM) for 30 min at 37° C. and are analyzed by flow cytometry to measure ethidium fluorescence. Flow analysis of mitochondrial transmembrane potential (ψm) is conducted by labeling cells with DiOC6(3) (20 nM) for 15 min at 37 degrees C. A positive control for disruption of ψm is established using carbonyl cyanide m-chlorophenylhydrazone (CCCP, 50 μM). Caspase activation assays are performed with FAM-VAD-fluoromethylketone. Processing of the substrate is evaluated by flow cytometry.
(§2) Since an early mitochondrial superoxide (O2^−) mediates apoptosis induced by Bz-423, the O2^− response of cells 1 h following incubation with drug was examined, as well as cell death at 24 h, as previously described (see, e.g., Blatt, N. B., et al., 2002 J Clin Invest 110, 1123-1132; incorporated herein by reference in its entirety).

Jurkat cells [7] = test: early O2− (ROS) response, 1 h; type: cell-based
Experimental: as §1, §2

Jurkat cells [8] = test: cell death at 24 h; type: cell-based
Experimental: as §2

[9] = molecular target: T3, F1F0-ATPase, OSCP subunit (UniProt P48047); test: F1F0-ATPase activity in SMPs reconstituted in the presence or absence of the OSCP; type: biochemical, bovine; parameters: not tied in print to the reconstitution assay; conditions: FIG. 19C
T3 sequence (P48047 1-213): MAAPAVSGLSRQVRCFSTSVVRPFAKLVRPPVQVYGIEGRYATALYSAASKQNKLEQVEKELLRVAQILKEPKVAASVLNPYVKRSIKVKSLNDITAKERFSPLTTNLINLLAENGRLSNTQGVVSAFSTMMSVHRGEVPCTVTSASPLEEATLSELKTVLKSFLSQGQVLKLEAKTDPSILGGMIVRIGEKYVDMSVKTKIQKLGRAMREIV
Experimental: An additional OSCP binding assay was conducted. […] Benzodiazepine derivative compounds that bind the OSCP include, but are not limited to: […]

ATP synthesis = test: cellular ATP synthesis (FIG. 15); type: cell-based
Experimental: The following four compounds were exposed to cells, and ATP synthesis measured: […]

F1F0-ATPase [10] = molecular target: F1F0-ATPase (Bos taurus, UniProt P13621+P32876); test: off-rate measurements, recovery of ATP synthesis of SMPs after dilution; type: biochemical, bovine
Experimental: Inhibition of Na,K-ATPases with oligomycin is time-dependent and results from a slow rate of dissociation from the enzyme (0.05 s^−1) (see, e.g., Esmann, M. (1991) Biochim. Biophys. Acta 1064, 31-36; herein incorporated by reference in its entirety). Since time-dependent inhibition can have profound effects on the function of the F1F0-ATPase, the off-rate of Bz-423 and oligomycin during ATP synthesis was examined. […] Inhibited SMP suspensions were diluted into buffer and activity was measured over time. Enzymatic activity of the SMPs incubated with Bz-423 had recovered to 90% of control at 10 s, indicating rapid dissociation (see, FIG. 18). In contrast, the activity of the enzyme incubated with oligomycin was only 54% of the uninhibited activity at 10 s, and increased for several minutes after dilution (see, FIG. 18). The time-dependence of the recovery of activity fit to a single exponential yielding an apparent dissociation rate constant for Bz-423>0.3 s^−1. However, dissociation of oligomycin was complex and a portion of the inhibitor dissociated at least 10-fold slower, consistent with a tight-binding, slow-dissociating inhibitor (see, e.g., Morrison, J. F., and Walsh, C. T. (1988) Adv. Enzymol. Relat. Areas Mol. Biol. 61, 201-301; herein incorporated by reference in its entirety). Presumably, the constraints of a high-affinity inhibitor dissociating from the membrane embedded proton channel presented a significant barrier for dissociation resulting in a slow off-rate.
Off-rate measurements. Rate of inhibition of ATP synthesis was measured as described above with the following changes. A 20 μL aliquot of SMPs (1 mg mL^−1) in synthesis buffer (with 10 mM K2HPO4) was added to each well of a 96-well plate containing 2.5 μL of 100× drug (14 μM Bz-423 and 35 nM oligomycin, final) or DMSO vehicle control. The drug was diluted out by adding 200 μL of synthesis buffer to each well. Substratecoupling mixture (25 μL with 1 mM ADP) was added to each well at the indicated time point and the rate of NADP^+ reduction was monitored over time.

F1F0-ATPase [11] = molecular target: F1F0-ATPase (Homo sapiens, UniProt P05496+P48047); conditions: read-out: IC50 for oligomycin; cited from earlier work
Na,K-ATPases = conditions: cited from earlier work
[12] = rodents, two daily doses; cited from earlier work
[13] = Jurkat cells, 75 μM PK11195, with or without antioxidant pre-incubation
[14] = hydrolysis, three-dimensional fit
[15] = synthesis, three-dimensional fit

CN1C(=O)C(Cc2ccc3ccccc3c2)N=C(c2ccc(Cl)cc2)c2cc(Cl)ccc21 (stereo not shown) [Bz-Cl]
Kd (human OSCP): ~5 µM | decrease of cytotoxic activity compared to Bz-423 (Ramos cells [1]): ~80% | effect on ODC activity [2]: inhibited ODC activity | effect on proliferation compared with Bz-423 [3]: reduced proliferation to a similar extent as Bz-423

CCC(C)N(C)C(=O)c1cc2ccccc2c(-c2ccccc2Cl)n1 (stereo not shown) [PK11195]
inhibition of mitochondrial ATPase activity ([4]; 80 μM): do not significantly inhibit mitochondrial ATPase activity | EC50 ([4]; bovine SMPs, read-out: ATPase activity EC50 (μM), Hydrolysis): 230 µM | EC50 ([5]; bovine SMPs, read-out: ATPase activity EC50 (μM), Synthesis): 33 µM | EC50 (Ramos B cells; Ramos, 24 h, read-out: Cell death EC50 (μM), Ramos cells): 90 µM | EC50 (Ramos B cells; Ramos B cells, 24 h (Table 6), read-out: EC50 (μM), cell death): > 80 µM | EC50 (Ramos cells [6]): 100 µM | EC50 (Jurkat cells [7]; Homo sapiens, Jurkat, 1 h, read-out: ROS EC50 (μM), Jurkat cells): 56 µM | % ROS+ (Jurkat cells [7]; [13]): 67.9 ± 5.0% | EC50 (Jurkat cells [8]; Homo sapiens, Jurkat, 24 h, read-out: Cell death EC50 (μM), Jurkat cells): 75 µM | % Cell death (Jurkat cells [8]; [13]): 85.5 ± 1.7% | dependence of F1F0-ATPase inhibition on the OSCP [9]: more potent inhibitor of F1F0-ATPase activity in the presence of the OSCP

CN1C(=O)C(c2ccccc2)NC(c2ccc(O)cc2)c2cc(Cl)ccc21 (stereo not shown)
inhibition of cellular ATP synthesis (ATP synthesis): did inhibit ATP synthesis

CC[C@H]1/C=C/C=C/C[C@@H](C)[C@H](O)[C@@](C)(O)C(=O)[C@@H](C)[C@H](O)[C@@H](C)C(=O)[C@@H](C)[C@H](O)[C@@H](C)/C=C/C(=O)O[C@@H]2[C@H](C)[C@H](CC1)O[C@]1(CC[C@H](C)[C@H](C[C@@H](C)O)O1)[C@H]2C [oligomycin, reference compound]
Mechanism of inhibition ([4]; hydrolysis): noncompetitive inhibitor; also recorded: Non-competitive | nE, cooperativity factor for competitive inhibition constant ([4]; hydrolysis): 1.1 ± 0.3 | nES, cooperativity factor for uncompetitive inhibition constant ([4]; hydrolysis): 1.2 ± 0.1 | Ki ([4]; hydrolysis, read-out: Ki (E)): 0.011 ± 0.003 µM | Ki ([4]; hydrolysis, read-out: Ki (ES)): 0.013 ± 0.001 µM | K∞ [4, 14]: 0.12 ± 0.02 mM | Vmax [4, 14]: 0.77 ± 0.03 µmol/min/mg | Ki ([5]; Ki (E), synthesis): 0.0105 ± 0.0009 µM | Ki ([5]; Ki (ES), synthesis): 0.012 ± 0.001 µM | Mechanism of inhibition ([5]; synthesis): mixed inhibitor | nE, cooperativity factor for competitive inhibition constant ([5]; synthesis): 3.6 ± 0.5 | nES, cooperativity factor for uncompetitive inhibition constant ([5]; synthesis): 1.6 ± 0.3 | K∞ [5, 15]: 0.12 ± 0.01 mM | Vmax [5, 15]: 0.089 ± 0.003 µmol/min/mg | slower dissociation of a portion of the inhibitor (F1F0-ATPase [10]): at least 10 fold | reduction of F1F0-ATPase activity at the concentration produced after dilution (F1F0-ATPase [10]; 1.4 μM Bz-423, 3.5 nM oligomycin): 15% | ATP synthesis activity relative to that in the absence of inhibitor (F1F0-ATPase [10]; 14 μM Bz-423 or 35 nM oligomycin): 14% | enzymatic activity recovered after dilution, % of control (F1F0-ATPase [10]; at 10 s after dilution): 54% | IC50 (F1F0-ATPase [11]): 0.01 µM | rate of dissociation from the enzyme (Na,K-ATPases): 0.05 s⁻¹ | LD50 for oligomycin [12]: 0.5 mg/kg
